Patent US20230302160A1, “TUMOR CONTRAST COMPOUND, PREPARATION METHOD THEREFOR AND APPLICATION THEREOF IN TUMOR DIAGNOSTIC IMAGING” (Ningbo Haibo Biotechnology Co., Ltd, priority 2020, published 2023)
Read-outs that look alike come from different tables or passages of the source.

How the values were obtained:
[1] = Fluorescence emission spectroscopy test after mixing with surfactin in different ratios; format: physicochemical; conditions: for fluorescence quenching in aqueous solution under the action of surfactin compared with methanol solution (emission spectra): compound 20 μM, Ex=730 nm, Em=760-960 nm, ratio 1:5 stated for Compounds 1-3; for fluorescence quenching effect when the amount of surfactin was reduced: compound:surfactin from 1:5 to 1:1, 1:0.2
Experimental: Surfactin in different concentrations was added to the aqueous solution of the corresponding compound (final concentration of 20 μM), and the molar ratio of the compound to be tested to surfactin was 1:5, 1:1, 1:0.2. A methanol solution of the corresponding compound (final concentration of 20 μM) was used as a positive control. The test solution was shaken for 5 minutes and its fluorescence emission spectra (Ex=730 nm, Em=760-960 nm) were detected using a fluorescence spectrophotometer.

[2] = Fluorescence quenching effect after mixing with surfactin in different ratios (fluorescence imager, ROI); format: physicochemical; conditions: compound 20 μM with surfactin
Experimental: The test solution was shaken for 5 min and added to a black 96-well plate with 50 ul of test solution per experimental well. Then a fluorescence imager was used for imaging. The photos were taken under Ex=745 nm, Em=820 nm. The ROI (Region of Interest) value for each well was quantitatively calculated.

[3] = tested on: diseased colonic tissue in a mouse primary bowel cancer tumor model (APCmin/+); assay: Near-infrared imaging of diseased colon tissue immersed in compound/surfactin mixture, primary bowel cancer model; conditions: for recognition of tumor lesions: mixture with surfactin 1:5 (20 μM/100 μM), colon tissue immersed 12 min; for imaging ranking: mixture with surfactin 1:5, colon tissue immersed 12 min
Experimental: Establishment of the mouse primary bowel cancer tumor model of APCmin/+ mouse model: parent C57BL/6J-APC min/+ mice and C57BL/6J wt mice were caged and propagated. The genotype of the offspring was detected and the offspring C57BL/6J-APC min/+ mice (diseased mice) were screened. The offspring C57BL/6J-APC min/+ mice were killed at week 20. Mice were dissected and diseased colon tissue was taken. Colon was cut longitudinally for subsequent tests.
Compounds 1-8 were added to the aqueous solution of surfactin.
The diseased colon tissue of mice was immersed in the above fluid. A fluorescence imager was used for imaging after 12 min.

[4] = tested on: tumor tissue in a mouse subcutaneous xenograft renal clear cell carcinoma tumor model (786o); assay: Near-infrared imaging of excised tumor tissue immersed in compound/surfactin solution, renal clear cell carcinoma model; conditions: compound 20 μM, surfactin 100 μM (1:5), 786o xenograft tumor tissue immersed; for correlation between uptake by tumor tissues and immersion time: ROI
Experimental: (§1) Mice were dissected, and tumor tissues were taken.
Compounds 1-8 were added to the aqueous solution of surfactin. The final concentration of surfactin was 100 μM, and the final concentration of each compound was 20 μM (the molar ratio of the compound to surfactant was 1:5).
(§2) The tumor tissue was immersed in the above liquid.

[5] = tested on: organic anion transporting polypeptides (OATPs); conditions: compound:surfactin 1:5, 1 mM sodium bromosulfophthalein (50 equivalent), renal clear cell carcinoma xenograft tumor tissue
Experimental: Female nude mice around 5 weeks of age were ordered and subjected to subcutaneous renal clear cell cancer cell 786o inoculation after one week of barrier environmental adaptation at a specific position above the right lower limb (3×10^6/pce, suspended in 200 μl PBS solution). When the tumor volume reached 50-150 mm^3 (about 12-22 days), nude mice were randomly grouped with 3 mice in each experimental group. Mice were dissected, and tumor tissues were taken.
The tumor tissue was immersed in the above liquid. A fluorescence imager was used for imaging after a specified time.

[6] = molar ratio 1:1
Experimental: Different surfactants were added to the aqueous solution of Compound 4 (final concentration of […]), and the molar ratio of the compound to be tested to surfactin was 1:1. In addition, a methanol solution of the compound (final concentration of 20 μM) was used as a positive control. The test solution was shaken for 5 minutes and its fluorescence emission spectra (Ex=730 nm, Em=760-960 nm) were detected using a fluorescence spectrophotometer.

[7] = tested on: tumor tissue in a mouse subcutaneous xenograft breast cancer tumor model; assay: Near-infrared imaging of tumor tissue, breast cancer model; conditions: compound:surfactin 1:5, breast cancer xenograft tumor tissue; for correlation between uptake by tumor tissues and immersion time: ROI
Description: as §1, §2

[8] = tested on: human renal cancer cell line A498; assay: Fluorescence localization imaging in human renal cancer cell line A498; format: cell-based; conditions: same method as Example 2; for intracellular localization: A498 cells
Experimental: 786o cells (3×10^5/well) were seeded in a 6-well plate in advance and placed in a cell culture incubator for 48 h. After the culture medium was blotted, a culture medium comprising the corresponding compound (5 μM) and Mito-tracker (0.2 nM) was added to the experimental well, incubated for 30 min, cleaned three times with PBS solution, and imaged using a fluorescence microscope equipped with an infrared camera and a continuous LED light source. The near-infrared photos were taken under Ex=745 nm, Em=820 nm; the Mito-tracker photos were taken under Ex=488 nm and Em=520 nm.
The same method as Example 2 was employed except that the human renal cancer cell line A498 was used to detect the localization of Compounds 4, 5 within the cell.

## CC1(C)C(/C=C/C2=C(Cl)C(=C/C=C3/N(CCCCCC(=O)O)c4ccccc4C3(C)C)/CCC2)=[N+](CCCCCC(=O)O)c2ccccc21 [Compound 1, reference compound]
[1]
  fluorescence quenching in aqueous solution under the action of surfactin compared with methanol solution (emission spectra): obvious fluorescence quenching
  fluorescence quenching effect when the amount of surfactin was reduced: significantly reduced
[2]
  fluorescence quenching effect, comparison between compounds: the worst
[3]
  recognition of tumor lesions: had a recognition effect
[4]
  reason for near-infrared imaging of tumor tissues: non-specific adsorption of the compounds by tissues
  correlation between uptake by tumor tissues and immersion time: no obvious positive correlation

## CCN1/C(=C/C=C2\CCCC(/C=C/C3=[N+](CC)c4ccccc4C3(C)C)=C2Cl)C(C)(C)c2ccccc21 [Compound 2, reference compound]
[1]
  fluorescence quenching in aqueous solution under the action of surfactin compared with methanol solution (emission spectra): obvious fluorescence quenching
  fluorescence quenching effect when the amount of surfactin was reduced: significantly reduced
[3]
  recognition of tumor lesions: had a recognition effect
[4]
  reason for near-infrared imaging of tumor tissues: non-specific adsorption of the compounds by tissues
  correlation between uptake by tumor tissues and immersion time: no obvious positive correlation

## CC[N+]1=C(/C=C/C2=C(Cl)C(=C/C=C3/N(CCCCCC(=O)O)c4ccccc4C3(C)C)/CCC2)C(C)(C)c2ccccc21 [Compound 3, reference compound]
[1]
  fluorescence quenching in aqueous solution under the action of surfactin compared with methanol solution (emission spectra): obvious fluorescence quenching
  fluorescence quenching effect when the amount of surfactin was reduced: significantly reduced
[3]
  recognition of tumor lesions: had a recognition effect
[4]
  reason for near-infrared imaging of tumor tissues: non-specific adsorption of the compounds by tissues
  correlation between uptake by tumor tissues and immersion time: no obvious positive correlation

## CC[N+]1=C(/C=C/C2=C(Cl)C(=C/C=C3/N(CCCCCC(=O)Oc4ccccc4)c4ccccc4C3(C)C)/CCC2)C(C)(C)c2ccccc21 [Compound 4]
[1]
  fluorescence quenching in aqueous solution under the action of surfactin compared with methanol solution (emission spectra): obvious fluorescence quenching
  fluorescence quenching effect when the amount of surfactin was reduced: not significantly reduced
[2]
  fluorescence quenching effect, comparison between compounds: better than that of Compounds 1, 2 and 3
[5]
  effect of excessive sodium bromosulfophthalein on uptake by tumor tissues: effectively reduce the uptake
[6]; mixed with anionic surfactants (surfactin, sodium dodecyl sulfonate, sodium dodecyl benzene sulfonate)
  fluorescence signal in aqueous solution after mixing: substantially no fluorescence signal
[6]; mixed with cationic surfactants (dodecyltrimethylammonium chloride, tetrabutylammonium iodide)
  fluorescence signal in aqueous solution after mixing: still fluorescence signal
[6]; mixed with human serum albumin
  fluorescence signal in aqueous solution after mixing: still fluorescence signal
[6]; mixed with nonionic surfactants (Kolliphor, P123)
  fluorescence signal in aqueous solution after mixing: still fluorescence signal
[3]
  recognition of tumor lesions: high specific recognition
  imaging ranking: best imaged
[7]
  uptake of the compound by tumor tissue (level): higher
  correlation between uptake by tumor tissues and immersion time: an obvious positive correlation
[8]
  intracellular localization: enriched in mitochondria
  uptake by tumor cells: uptaken by tumor cells
[4]
  overall imaging of tumor tissue: optimal imaging of tumor tissue
  reason for near-infrared imaging of tumor tissues: targeted recognition of tumor tissues by the compounds
  uptake of the compound by tumor tissue (level): high uptake
  correlation between uptake by tumor tissues and immersion time: an obvious positive correlation

## CC[N+]1=C(/C=C/C2=C(Cl)C(=C/C=C3/N(CCCCCC(=O)Oc4ccc(NC(=O)OC(C)(C)C)cc4)c4ccccc4C3(C)C)/CCC2)C(C)(C)c2ccccc21 [Compound 5]
[1]
  fluorescence quenching in aqueous solution under the action of surfactin compared with methanol solution (emission spectra): obvious fluorescence quenching
  fluorescence quenching effect when the amount of surfactin was reduced: not significantly reduced
[2]
  fluorescence quenching effect, comparison between compounds: better than that of Compounds 1, 2 and 3
[3]
  recognition of tumor lesions: high specific recognition
[8]
  intracellular localization: enriched in mitochondria
  uptake by tumor cells: uptaken by tumor cells
[4]
  reason for near-infrared imaging of tumor tissues: targeted recognition of tumor tissue by the compounds
  uptake of the compound by tumor tissue (level): low uptake
  correlation between uptake by tumor tissues and immersion time: a certain positive correlation

## CC[N+]1=C(/C=C/C2=C(Cl)C(=C/C=C3/N(CCCCCC(=O)Nc4ccc(NC(=O)OC(C)(C)C)cc4)c4ccccc4C3(C)C)/CCC2)C(C)(C)c2ccccc21 [Compound 6]
[1]
  fluorescence quenching in aqueous solution under the action of surfactin compared with methanol solution (emission spectra): obvious fluorescence quenching
  fluorescence quenching effect when the amount of surfactin was reduced: not significantly reduced
[3]
  recognition of tumor lesions: high specific recognition
  imaging ranking: best imaged
[7]
  uptake of the compound by tumor tissue (level): higher
  correlation between uptake by tumor tissues and immersion time: an obvious positive correlation
[4]
  overall imaging of tumor tissue: optimal imaging of tumor tissue
  reason for near-infrared imaging of tumor tissues: targeted recognition of tumor tissues by the compounds
  uptake of the compound by tumor tissue (level): high uptake
  correlation between uptake by tumor tissues and immersion time: an obvious positive correlation
